Source: ChEMBL document CHEMBL5291721, “A preclinical secondary pharmacology resource illuminates target-adverse drug reaction associations of marketed drugs” (Nat Commun, 2023)

Legend:
[1] = target: T1, Alpha-1A adrenergic receptor (Homo sapiens, UniProt P35348); type: functional, cell-based
T1 sequence (P35348 whole entry): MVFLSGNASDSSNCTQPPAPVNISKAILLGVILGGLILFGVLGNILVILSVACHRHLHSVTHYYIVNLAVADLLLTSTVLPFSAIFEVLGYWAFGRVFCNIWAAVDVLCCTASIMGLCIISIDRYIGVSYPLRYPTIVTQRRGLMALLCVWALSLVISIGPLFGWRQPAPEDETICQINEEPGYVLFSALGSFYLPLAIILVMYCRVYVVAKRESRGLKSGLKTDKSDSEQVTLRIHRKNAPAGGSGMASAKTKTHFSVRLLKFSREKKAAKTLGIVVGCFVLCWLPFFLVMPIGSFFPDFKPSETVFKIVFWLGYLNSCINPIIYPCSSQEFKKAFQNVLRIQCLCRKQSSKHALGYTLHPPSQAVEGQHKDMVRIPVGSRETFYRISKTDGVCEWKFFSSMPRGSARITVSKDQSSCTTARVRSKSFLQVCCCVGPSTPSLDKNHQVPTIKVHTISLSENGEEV

[2] = target: T2, Muscarinic acetylcholine receptor M1 (Homo sapiens, UniProt P11229); type: functional
T2 sequence (P11229 whole entry): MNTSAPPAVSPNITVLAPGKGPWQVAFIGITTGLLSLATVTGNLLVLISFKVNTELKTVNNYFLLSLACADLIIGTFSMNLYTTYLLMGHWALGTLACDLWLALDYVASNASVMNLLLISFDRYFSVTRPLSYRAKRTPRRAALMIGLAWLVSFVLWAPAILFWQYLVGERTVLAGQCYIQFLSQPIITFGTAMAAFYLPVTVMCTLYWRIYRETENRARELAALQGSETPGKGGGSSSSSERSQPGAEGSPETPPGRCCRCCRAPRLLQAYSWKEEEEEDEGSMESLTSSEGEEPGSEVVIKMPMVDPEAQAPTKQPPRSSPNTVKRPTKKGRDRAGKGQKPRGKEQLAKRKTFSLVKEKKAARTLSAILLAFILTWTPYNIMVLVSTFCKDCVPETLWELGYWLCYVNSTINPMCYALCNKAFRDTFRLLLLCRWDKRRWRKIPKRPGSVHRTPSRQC

[3] = target: Muscarinic acetylcholine receptor M3 (Homo sapiens, UniProt P20309)
Muscarinic acetylcholine receptor M3, sequence (P20309 whole entry): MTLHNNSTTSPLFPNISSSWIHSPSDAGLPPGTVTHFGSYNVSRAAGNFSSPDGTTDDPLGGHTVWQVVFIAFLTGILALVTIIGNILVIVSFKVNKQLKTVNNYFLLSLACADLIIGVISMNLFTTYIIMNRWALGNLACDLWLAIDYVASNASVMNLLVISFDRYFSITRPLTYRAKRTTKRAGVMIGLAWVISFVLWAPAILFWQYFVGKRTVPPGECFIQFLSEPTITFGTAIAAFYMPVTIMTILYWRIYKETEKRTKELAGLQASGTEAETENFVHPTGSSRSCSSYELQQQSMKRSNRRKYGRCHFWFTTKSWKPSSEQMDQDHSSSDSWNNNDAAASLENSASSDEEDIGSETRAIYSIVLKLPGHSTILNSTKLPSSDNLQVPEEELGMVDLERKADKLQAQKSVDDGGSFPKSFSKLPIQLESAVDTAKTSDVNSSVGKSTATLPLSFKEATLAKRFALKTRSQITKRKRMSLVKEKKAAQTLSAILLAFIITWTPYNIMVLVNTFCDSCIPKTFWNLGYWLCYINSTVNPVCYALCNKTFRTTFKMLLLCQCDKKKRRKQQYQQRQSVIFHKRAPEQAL

[4] = target: Gamma-aminobutyric acid receptor subunit alpha-1 (Rattus norvegicus, UniProt P62813); type: functional
Gamma-aminobutyric acid receptor subunit alpha-1, sequence (P62813 whole entry): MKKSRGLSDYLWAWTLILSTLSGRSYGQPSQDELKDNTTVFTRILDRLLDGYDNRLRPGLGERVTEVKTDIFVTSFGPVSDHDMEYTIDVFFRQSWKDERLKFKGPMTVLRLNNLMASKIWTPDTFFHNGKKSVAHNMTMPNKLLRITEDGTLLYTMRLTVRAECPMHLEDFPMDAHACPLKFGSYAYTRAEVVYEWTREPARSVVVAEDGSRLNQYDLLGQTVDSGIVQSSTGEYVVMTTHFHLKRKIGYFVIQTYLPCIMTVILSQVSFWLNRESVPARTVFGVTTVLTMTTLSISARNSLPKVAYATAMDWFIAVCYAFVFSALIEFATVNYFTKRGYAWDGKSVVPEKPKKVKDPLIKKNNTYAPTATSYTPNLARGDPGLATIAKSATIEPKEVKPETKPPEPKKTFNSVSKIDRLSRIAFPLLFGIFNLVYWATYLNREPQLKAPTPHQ

Histamine H1 receptor = Histamine H1 receptor (Homo sapiens, UniProt P35367)
Histamine H1 receptor, sequence (P35367 whole entry): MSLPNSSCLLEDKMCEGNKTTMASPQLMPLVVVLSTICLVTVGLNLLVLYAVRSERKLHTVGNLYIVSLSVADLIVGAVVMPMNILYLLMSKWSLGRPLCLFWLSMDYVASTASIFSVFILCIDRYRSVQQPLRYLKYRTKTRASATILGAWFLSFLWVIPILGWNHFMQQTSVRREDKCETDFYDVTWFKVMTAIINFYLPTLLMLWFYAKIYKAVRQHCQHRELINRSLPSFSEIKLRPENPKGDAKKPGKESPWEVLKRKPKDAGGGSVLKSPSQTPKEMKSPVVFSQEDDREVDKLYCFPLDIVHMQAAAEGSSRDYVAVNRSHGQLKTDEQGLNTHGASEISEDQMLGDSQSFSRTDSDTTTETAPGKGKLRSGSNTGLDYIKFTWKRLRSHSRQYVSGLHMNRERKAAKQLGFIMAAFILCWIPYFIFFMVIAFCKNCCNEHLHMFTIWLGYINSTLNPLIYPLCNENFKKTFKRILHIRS

Histamine H2 receptor = Histamine H2 receptor (Homo sapiens, UniProt P25021); type: functional, cell-based
Histamine H2 receptor, sequence (P25021 whole entry): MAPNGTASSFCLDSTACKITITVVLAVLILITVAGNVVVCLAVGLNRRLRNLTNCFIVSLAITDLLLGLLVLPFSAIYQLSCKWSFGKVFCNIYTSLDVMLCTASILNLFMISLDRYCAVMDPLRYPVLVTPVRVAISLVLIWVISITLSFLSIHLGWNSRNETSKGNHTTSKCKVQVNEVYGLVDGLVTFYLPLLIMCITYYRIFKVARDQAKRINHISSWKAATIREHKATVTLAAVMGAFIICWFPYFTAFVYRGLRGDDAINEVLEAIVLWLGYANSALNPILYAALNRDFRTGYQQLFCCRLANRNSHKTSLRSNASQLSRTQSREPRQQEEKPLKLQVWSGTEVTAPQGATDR

[5] = target: T3, 5-hydroxytryptamine receptor 2C (Homo sapiens, UniProt P28335)
T3 sequence (P28335 whole entry): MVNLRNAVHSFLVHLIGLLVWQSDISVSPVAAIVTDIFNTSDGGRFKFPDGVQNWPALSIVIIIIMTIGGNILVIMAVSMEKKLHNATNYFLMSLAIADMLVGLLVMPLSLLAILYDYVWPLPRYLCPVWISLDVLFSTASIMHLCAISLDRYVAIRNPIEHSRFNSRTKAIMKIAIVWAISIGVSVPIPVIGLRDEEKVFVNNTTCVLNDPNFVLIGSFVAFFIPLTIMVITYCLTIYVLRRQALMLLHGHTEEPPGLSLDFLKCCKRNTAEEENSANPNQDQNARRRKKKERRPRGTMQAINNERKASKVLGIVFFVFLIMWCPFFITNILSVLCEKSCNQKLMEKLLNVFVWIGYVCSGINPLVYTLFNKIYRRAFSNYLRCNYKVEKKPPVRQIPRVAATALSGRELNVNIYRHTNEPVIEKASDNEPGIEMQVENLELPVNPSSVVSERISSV

[6] = target: T4, Amine oxidase [flavin-containing] A (Homo sapiens, UniProt P21397); type: functional
T4 sequence (P21397 whole entry): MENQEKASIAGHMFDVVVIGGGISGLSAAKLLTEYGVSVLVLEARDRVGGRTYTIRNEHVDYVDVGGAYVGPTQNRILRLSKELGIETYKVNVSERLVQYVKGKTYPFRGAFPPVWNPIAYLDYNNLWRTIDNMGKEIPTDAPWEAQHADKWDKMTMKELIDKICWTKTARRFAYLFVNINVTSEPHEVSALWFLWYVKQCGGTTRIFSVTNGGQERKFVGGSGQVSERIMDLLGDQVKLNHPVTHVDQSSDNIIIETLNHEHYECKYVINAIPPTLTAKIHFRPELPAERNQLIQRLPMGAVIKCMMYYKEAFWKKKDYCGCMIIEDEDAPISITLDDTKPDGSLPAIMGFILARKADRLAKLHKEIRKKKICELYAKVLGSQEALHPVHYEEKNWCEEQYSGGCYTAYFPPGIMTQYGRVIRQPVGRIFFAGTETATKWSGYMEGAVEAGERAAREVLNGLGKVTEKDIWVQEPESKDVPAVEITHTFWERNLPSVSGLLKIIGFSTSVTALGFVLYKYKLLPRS

[7] = target: T1, Alpha-1A adrenergic receptor; type: functional, cell-based; remark: listed apart in the source
D(3) dopamine receptor = D(3) dopamine receptor (Homo sapiens, UniProt P35462)
D(3) dopamine receptor, sequence (P35462 whole entry): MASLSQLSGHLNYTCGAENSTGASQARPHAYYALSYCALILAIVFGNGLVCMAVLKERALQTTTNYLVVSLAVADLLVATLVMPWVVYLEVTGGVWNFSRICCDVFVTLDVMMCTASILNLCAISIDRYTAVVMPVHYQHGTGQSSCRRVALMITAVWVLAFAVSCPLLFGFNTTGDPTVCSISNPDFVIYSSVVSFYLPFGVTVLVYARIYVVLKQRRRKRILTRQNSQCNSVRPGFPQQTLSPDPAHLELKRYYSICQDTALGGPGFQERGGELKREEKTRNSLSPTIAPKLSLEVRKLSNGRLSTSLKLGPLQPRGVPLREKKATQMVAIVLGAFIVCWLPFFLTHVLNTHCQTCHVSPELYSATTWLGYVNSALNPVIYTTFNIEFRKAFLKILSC

[8] = target: 5-hydroxytryptamine receptor 2B (Homo sapiens, UniProt P41595); type: functional, cell-based
5-hydroxytryptamine receptor 2B, sequence (P41595 whole entry): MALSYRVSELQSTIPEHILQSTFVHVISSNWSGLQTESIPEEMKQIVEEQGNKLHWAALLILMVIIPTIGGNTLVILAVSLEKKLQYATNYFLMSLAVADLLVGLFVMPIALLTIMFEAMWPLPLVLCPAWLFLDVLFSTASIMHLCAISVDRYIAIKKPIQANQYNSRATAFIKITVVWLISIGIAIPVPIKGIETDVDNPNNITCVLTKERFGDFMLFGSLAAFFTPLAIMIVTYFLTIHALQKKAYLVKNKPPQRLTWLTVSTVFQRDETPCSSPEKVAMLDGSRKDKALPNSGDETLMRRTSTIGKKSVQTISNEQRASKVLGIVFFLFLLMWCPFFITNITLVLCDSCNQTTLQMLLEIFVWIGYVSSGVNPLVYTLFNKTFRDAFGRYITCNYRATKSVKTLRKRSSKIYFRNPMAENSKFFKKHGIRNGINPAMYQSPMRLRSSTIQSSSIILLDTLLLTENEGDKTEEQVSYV

[9] = target: T4, Amine oxidase [flavin-containing] A; type: functional; remark: listed apart in the source
[10] = target: Prostaglandin G/H synthase 1 (Homo sapiens, UniProt P23219); type: functional
Prostaglandin G/H synthase 1, sequence (P23219 whole entry): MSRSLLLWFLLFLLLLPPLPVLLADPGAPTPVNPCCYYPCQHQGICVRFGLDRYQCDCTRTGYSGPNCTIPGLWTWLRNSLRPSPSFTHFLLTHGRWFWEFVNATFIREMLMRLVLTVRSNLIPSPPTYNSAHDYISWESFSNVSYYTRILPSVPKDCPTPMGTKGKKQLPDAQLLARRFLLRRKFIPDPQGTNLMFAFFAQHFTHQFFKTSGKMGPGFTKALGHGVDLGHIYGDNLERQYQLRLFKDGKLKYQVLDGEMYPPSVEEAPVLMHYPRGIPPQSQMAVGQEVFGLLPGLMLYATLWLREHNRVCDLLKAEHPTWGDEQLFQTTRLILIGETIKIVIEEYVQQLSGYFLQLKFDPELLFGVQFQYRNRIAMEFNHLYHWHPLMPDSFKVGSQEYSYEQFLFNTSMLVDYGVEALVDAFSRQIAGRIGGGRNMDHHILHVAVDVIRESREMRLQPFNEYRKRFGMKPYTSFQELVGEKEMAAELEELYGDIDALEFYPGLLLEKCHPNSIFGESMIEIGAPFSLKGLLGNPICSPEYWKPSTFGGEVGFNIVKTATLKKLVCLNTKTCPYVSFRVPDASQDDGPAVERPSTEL

[11] = target: Sodium-dependent noradrenaline transporter (Homo sapiens, UniProt P23975)
Sodium-dependent noradrenaline transporter, sequence (P23975 whole entry): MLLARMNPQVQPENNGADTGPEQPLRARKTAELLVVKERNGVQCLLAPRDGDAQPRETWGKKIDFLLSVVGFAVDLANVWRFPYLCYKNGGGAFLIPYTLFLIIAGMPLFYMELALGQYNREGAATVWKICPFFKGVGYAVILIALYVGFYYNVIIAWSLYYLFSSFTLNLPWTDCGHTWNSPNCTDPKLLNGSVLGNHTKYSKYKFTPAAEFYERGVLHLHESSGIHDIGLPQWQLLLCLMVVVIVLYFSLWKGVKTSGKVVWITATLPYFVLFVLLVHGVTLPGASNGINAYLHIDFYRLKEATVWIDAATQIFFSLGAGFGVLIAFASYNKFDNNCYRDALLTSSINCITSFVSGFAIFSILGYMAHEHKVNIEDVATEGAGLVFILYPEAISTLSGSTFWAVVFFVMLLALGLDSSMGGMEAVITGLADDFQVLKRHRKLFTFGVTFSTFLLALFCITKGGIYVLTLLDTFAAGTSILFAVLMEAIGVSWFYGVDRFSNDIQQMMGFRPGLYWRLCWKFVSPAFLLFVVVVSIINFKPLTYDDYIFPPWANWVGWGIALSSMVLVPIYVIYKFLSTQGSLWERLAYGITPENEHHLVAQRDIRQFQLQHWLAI
Note: assay procedure not described here.

CCN(CC)C(=O)C1(c2ccccc2)CC1CN (centres undefined)
AC50 [1]: > 30 µM | AC50 [2]: > 30 µM | AC50 [3]: > 30 µM | AC50 [4]: > 30 µM | AC50 (Histamine H1 receptor): > 30 µM | AC50 (Histamine H2 receptor): > 30 µM | AC50 [5]: 590 nM | AC50 [6]: > 30 µM

CN(C)C(=O)Oc1cccc([N+](C)(C)C)c1 [NEOSTIGMINE]
AC50 [7]: > 30 µM | AC50 (D(3) dopamine receptor): > 30 µM | AC50 [8]: > 30 µM | AC50 [9]: > 30 µM | AC50 [10]: > 30 µM | AC50 [11]: > 30 µM
